Results on 18 molecules are retold here after patent US11878972B2, “Treatment of neurological disorders” (TORQUR AG, priority 2016, dated 2024).

Structures are written as SMILES.

One experiment has as its system pPKB S473 in A2058 cells. Briefly: In-cell Western blot, pPKB S473. It counts as cell-based. The settings on record: Homo sapiens, treated for 1 hour, normalized to α-tubulin.
The test system of experiment [1] is pS6 S235/S236 in A2058 cells. Briefly: In-cell Western blot, pS6 S235/S236. The settings on record: Homo sapiens, treated for 1 hour, normalized to α-tubulin. The experiment is classed as cell-based.
Experimental: (§1) Cells are fixed with 4% paraformaldehyde for 30 minutes at room temperature, washed 2 times with 1% BSA in PBS, permeabilized with 0.1% Triton X-100 in PBS/1% BSA for 30 minutes at room temperature and blocked with 5% goat serum in PBS/1% BSA/0.1% Triton X-100 for 30 minutes at room temperature. […] Cells are washed 3 times 5 minutes with PBS/1% BSA/0.1% triton and plate scanned with the Odyssey Infrared Scanning system using both 700 and 800 nm channels. […] To correct for background staining in the data analysis wells are treated only with secondary antibodies.
(§2) For data analysis the mean background signal from channel 700 nm and 800 nm are subtracted from each signal in channel 700 nm and 800 nm, respectively.
(§3) IC50 values of each compound are determined by plotting the normalized pPBK S473 and pS6 S235/S236 signals, respectively, versus the compound concentrations (in logarithmic scale) and then by fitting a sigmoidal dose-response curve with variable slope to the data using GraphPad™ Prism.

Experimental for pPKB S473 in A2058 cells: as §1, §2, §3

As to `C[C@H]1COCCN1c1cc(-c2cnc(N)cc2C(F)F)nc(N2CCOCC2)n1` [Compound 27, (S)-4-(difluoromethyl)-5-(6-(3-methylmorpholino)-2-morpholinopyrimidin-4-yl)pyridin-2-amine], the values for the IC50 (with pPKB S473 in A2058 cells; in experiment [1]) were 614 nM and 766 nM, respectively.

`C[C@H]1COCCN1c1nc(-c2cnc(N)cc2C(F)F)cc(N2CCOCC2)n1` [Compound 31, (S)-4-(difluoromethyl)-5-(2-(3-methylmorpholino)-6-morpholinopyrimidin-4-yl)pyridin-2-amine]: the half-maximal inhibitory concentration (IC50) (usually the point on the concentration scale where inhibition reaches its midpoint) turned out to be 146 nM in the experiment on pPKB S473 in A2058 cells and 124 nM in experiment [1].

Consider `C[C@H]1COCCN1c1nc(-c2cnc(N)nc2C(F)F)cc(N2CCOCC2)n1` [Compound 32, (S)-4′-(difluoromethyl)-2-(3-methylmorpholino)-6-morpholino-[4,5′-bipyrimidin]-2′-amine], for which the values for the 50% inhibitory concentration (IC50) (with pPKB S473 in A2058 cells; in experiment [1]) were 100 nM and 387 nM, respectively.

On to `CC1(C)COCCN1c1nc(-c2cnc(N)cc2C(F)F)nc(N2CCOCC2(C)C)n1` [Compound 39, 5-[4,6-bis(3,3-dimethylmorpholin-4-yl)-1,3,5-triazin-2-yl]-4-(difluoromethyl)pyridin-2-amine], for which the IC50 in the experiment with pPKB S473 in A2058 cells (A2058, 1 h) was 106 nM; in experiment [1] (A2058, 1 h) it was 47 nM.

As to `C[C@@H]1COC[C@H](C)N1c1nc(-c2cnc(N)cc2C(F)F)nc(N2[C@H](C)COC[C@@H]2C)n1` [Compound 40, 5-[4,6-bis[(3R,5S)-3,5-dimethylmorpholin-4-yl]-1,3,5-triazin-2-yl]-4-(difluoromethyl)pyridin-2-amine], the values for the half-maximal inhibitory concentration (IC50) (with pPKB S473 in A2058 cells; in experiment [1]) were 252 nM and 160 nM, respectively.

Take `C[C@@H]1COCCN1c1nc(-c2cnc(N)cc2C(F)F)nc(N2CCOC[C@H]2C)n1` [Compound 41, 5-[4,6-bis[(3R)-3-methylmorpholin-4-yl]-1,3,5-triazin-2-yl]-4-(difluoromethyl)pyridin-2-amine]: the figures for the IC50 (in the experiment with pPKB S473 in A2058 cells; in experiment [1]) were 436 nM and 261 nM, respectively.

Regarding `CC1(C)COCCN1c1nc(-c2cnc(N)cc2C(F)F)nc(N2CCOCC2)n1` [Compound 42, 4-(difluoromethyl)-5-[4-(3,3-dimethylmorpholin-4-yl)-6-morpholino-1,3,5-triazin-2-yl]pyridin-2-amine], the IC50 turned out to be 54 nM in the experiment with pPKB S473 in A2058 cells (A2058, 1 h) and 45 nM in experiment [1] (A2058, 1 h).

`COC[C@@H]1COCCN1c1nc(-c2cnc(N)cc2C(F)F)nc(N2CCOC[C@H]2C)n1` [Compound 46, 4-(difluoromethyl)-5-[4-[(3R)-3-(methoxymethyl)morpholin-4-yl]-6-[(3R)-3-methylmorpholin-4-yl]-1,3,5-triazin-2-yl]pyridin-2-amine]: the IC50 in the experiment with pPKB S473 in A2058 cells (A2058, 1 h) is 956 nM; in experiment [1] (A2058, 1 h), 426 nM.

Consider `C[C@@H]1COCCN1c1nc(-c2cnc(N)cc2C(F)F)nc(N2C3COCC2C3)n1` [Compound 50, 4-(difluoromethyl)-5-[4-[(3R)-3-methylmorpholin-4-yl]-6-(3-oxa-6-azabicyclo[3.1.1]heptan-6-yl)-1,3,5-triazin-2-yl]pyridin-2-amine], for which the IC50 in the experiment with pPKB S473 in A2058 cells (A2058, 1 h) came out at 1560 nM; in experiment [1] (A2058, 1 h), 407 nM.

Take `CC[C@@H]1COCCN1c1nc(-c2cnc(N)cc2C(F)F)nc(N2CCOC[C@H]2CC)n1` [Compound 54, 5-[4,6-bis[(3R)-3-ethylmorpholin-4-yl]-1,3,5-triazin-2-yl]-4-(difluoromethyl)pyridin-2-amine]: the IC50 in the experiment on pPKB S473 in A2058 cells (A2058, 1 h) is 354 nM; in experiment [1] (A2058, 1 h), 209 nM.

Take `Nc1cc(C(F)F)c(-c2nc(N3CCOCC34CCC4)nc(N3CCOCC34CCC4)n2)cn1` [Compound 55, 5-[4,6-bis(8-oxa-5-azaspiro[3.5]nonan-5-yl)-1,3,5-triazin-2-yl]-4-(difluoromethyl)pyridin-2-amine]: the IC50 in the experiment on pPKB S473 in A2058 cells (A2058, 1 h) was determined as 942 nM; in experiment [1] (A2058, 1 h) it was 526 nM.

Consider `C[C@@H]1COCCN1c1nc(-c2cnc(N)cc2C(F)F)nc(N2[C@H](C)COC[C@H]2C)n1` [Compound 78, 4-(difluoromethyl)-5-[4-[(3R,5R)-3,5-dimethylmorpholin-4-yl]-6-[(3R)-3-methylmorpholin-4-yl]-1,3,5-triazin-2-yl]pyridin-2-amine], for which the 50% inhibitory concentration (IC50) in the experiment with pPKB S473 in A2058 cells (A2058, 1 h) stood at 506 nM; in experiment [1] (A2058, 1 h), 392 nM.

Consider `C[C@@H]1COCCN1c1nc(-c2cnc(N)cc2C(F)F)nc(N2[C@@H](C)COC[C@@H]2C)n1` [Compound 79, 4-(difluoromethyl)-5-[4-[(3S,5S)-3,5-dimethylmorpholin-4-yl]-6-[(3R)-3-methylmorpholin-4-yl]-1,3,5-triazin-2-yl]pyridin-2-amine], for which the IC50 is 200 nM in the experiment on pPKB S473 in A2058 cells (A2058, 1 h) and 136 nM in experiment [1] (A2058, 1 h).

As to `C[C@H]1COC[C@H](C)N1c1nc(-c2cnc(N)cc2C(F)F)nc(N2[C@@H](C)COC[C@@H]2C)n1` [Compound 83, 5-[4,6-bis[(3S,5S)-3,5-dimethylmorpholin-4-yl]-1,3,5-triazin-2-yl]-4-(difluoromethyl)pyridin-2-amine], the results for the half-inhibitory concentration (IC50) (in the experiment on pPKB S473 in A2058 cells; in experiment [1]) were 379 nM and 294 nM, respectively.

Take `C[C@@H]1COCCN1c1nc(-c2cnc(N)cc2C(F)F)nc(N2CCOCC23CCC3)n1` [Compound 88, 4-(difluoromethyl)-5-[4-[(3R)-3-methylmorpholin-4-yl]-6-(8-oxa-5-azaspiro[3.5]nonan-5-yl)-1,3,5-triazin-2-yl]pyridin-2-amine]: the IC50 with pPKB S473 in A2058 cells (A2058, 1 h) worked out at 271 nM; in experiment [1] (A2058, 1 h), 192 nM.

Turning to `C[C@H]1COCCN1c1nc(-c2cnc(N)cc2C(F)(F)F)nc(N2CCOCC2)n1` [reference compound], the 50% inhibitory concentration (IC50) came out at 196 nM in the experiment with pPKB S473 in A2058 cells and 90 nM in experiment [1].

As for `C[C@H]1COCCN1c1nc(-c2cnc(N)nc2C(F)(F)F)nc(N2CCOCC2)n1` [reference compound], the half-inhibitory concentration (IC50) turned out to be 91 nM in the experiment with pPKB S473 in A2058 cells and 164 nM in experiment [1].

Take `Nc1cc(C(F)(F)F)c(-c2nc(N3CCOCC3)cc(N3CCOCC3)n2)cn1` [reference compound]: the half-inhibitory concentration (IC50) was 555 nM in the experiment on pPKB S473 in A2058 cells and 665 nM in experiment [1] (A2058, 1 h).
